Experimental data taken from ChEMBL document CHEMBL1777813, “Discovery of novel tetracyclic compounds as anaplastic lymphoma kinase inhibitors” (Bioorg Med Chem Lett, 2011).
Activity calls are given as the source filed them. The rule behind the calls is not given here.

How the values were obtained:
[1] = biological target: ALK tyrosine kinase receptor (Homo sapiens, UniProt Q9UM73)
[2] = Clearance in mouse liver microsomes at 1 uM after 30 mins in presence of NADPH; format: ADME, Microsome
[3] = Clearance in human liver microsomes at 1 uM after 30 mins in presence of NADPH; format: ADME, Microsome
KARPAS-299 [4] = assay: cells; conditions: Homo sapiens, KARPAS-299, 96 h
[5] = biological target: Vascular endothelial growth factor receptor 2 (Homo sapiens, UniProt P35968); assay: Inhibition of KDR assessed as biotin-EGPWLEEEEEAYGWMDF peptide phosphorylation by TR-FRET assay
[6] = biological target: Proto-oncogene tyrosine-protein kinase Src (Homo sapiens, UniProt P12931); assay: Inhibition of Src assessed as biotin-EGPWLEEEEEAYGWMDF peptide phosphorylation by TR-FRET assay
[7] = biological target: Fibroblast growth factor receptor 2 (Homo sapiens, UniProt P21802); assay: Inhibition of FGFR2 assessed as biotin-EGPWLEEEEEAYGWMDF peptide phosphorylation by TR-FRET assay
[8] = biological target: Tyrosine-protein kinase ABL1 (Homo sapiens, UniProt P00519); assay: Inhibition of Abl assessed as biotin-EGPWLEEEEEAYGWMDF peptide phosphorylation by TR-FRET assay
[9] = biological target: Insulin-like growth factor 1 receptor (Homo sapiens, UniProt P08069); assay: Inhibition of IGF1R assessed as biotin-EGPWLEEEEEAYGWMDF peptide phosphorylation by TR-FRET assay
[10] = biological target: Epidermal growth factor receptor (Homo sapiens, UniProt P00533); assay: Inhibition of EGFR assessed as biotin-EGPWLEEEEEAYGWMDF peptide phosphorylation by TR-FRET assay
[11] = biological target: Receptor tyrosine-protein kinase erbB-2 (Homo sapiens, UniProt P04626); assay: Inhibition of HER2 assessed as biotin-HEQEDEPEGDYFEWLEPE peptide phosphorylation by TR-FRET assay
[12] = biological target: Mast/stem cell growth factor receptor Kit (Homo sapiens, UniProt P10721); assay: Inhibition of Kit assessed as biotin-HEQEDEPEGDYFEWLEPE peptide phosphorylation by TR-FRET assay
[13] = biological target: RAC-alpha serine/threonine-protein kinase (Homo sapiens, UniProt P31749); assay: Inhibition of AKT1 assessed as FI-H1-peptide phosphorylation by fluorescence polarization assay
Aurora kinase A = biological target: T1, Aurora kinase A (Homo sapiens, UniProt O14965); assay: Inhibition of aurora A assessed as FLC-LRRASLG peptide phosphorylation by fluorescence polarization assay
T1 sequence (O14965 whole entry): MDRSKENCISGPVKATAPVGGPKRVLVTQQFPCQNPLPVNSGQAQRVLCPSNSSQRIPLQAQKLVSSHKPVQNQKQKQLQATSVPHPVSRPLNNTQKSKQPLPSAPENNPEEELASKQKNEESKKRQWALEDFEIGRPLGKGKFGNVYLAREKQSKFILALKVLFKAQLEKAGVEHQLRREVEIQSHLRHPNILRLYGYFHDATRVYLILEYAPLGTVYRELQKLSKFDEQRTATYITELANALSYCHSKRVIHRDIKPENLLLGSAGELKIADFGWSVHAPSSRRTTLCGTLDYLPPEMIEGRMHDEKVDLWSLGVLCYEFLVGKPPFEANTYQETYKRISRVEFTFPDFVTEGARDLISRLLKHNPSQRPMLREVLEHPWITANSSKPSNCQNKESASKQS

[14] = biological target: Protein kinase C alpha type (Homo sapiens, UniProt P17252); assay: Inhibition of PKCalpha assessed as FLC-SIYRRGSRRWRKL peptide phosphorylation by fluorescence polarization assay
[15] = biological target: T2, Protein kinase C beta type (Homo sapiens, UniProt P05771); assay: Inhibition of PKCbeta1 assessed as FLC-SIYRRGSRRWRKL peptide phosphorylation by fluorescence polarization assay
[16] = biological target: T2, Protein kinase C beta type; assay: Inhibition of PKCbeta2 assessed as FLC-SIYRRGSRRWRKL peptide phosphorylation by fluorescence polarization assay
[17] = biological target: RAF proto-oncogene serine/threonine-protein kinase (Homo sapiens, UniProt P04049); assay: Inhibition of Raf1 assessed as MEK1/2 phosphorylation by fluorescence polarization assay
KARPAS-299 [18] = assay: Antitumor activity against human KARPAS299 cells expressing NPM-ALK xenografted in SCID mouse assessed as reduction of tumor volume administered as po qd for 11 days; format: functional, organism-based
NCI-H2228 [19] = assay: Antitumor activity against human NCI-H2228 cells expressing EML4-ALK xenografted in SCID mouse assessed as reduction of tumor volume administered as po qd for 11 days; format: functional, organism-based
KARPAS-299 [20] = assay: Antitumor activity against human KARPAS299 cells expressing NPM-ALK xenografted in SCID mouse assessed as tumor regression at 6 to 60 mg/kg, po qd for 11 days; format: functional, organism-based
NCI-H2228 [21] = assay: Antitumor activity against human NCI-H2228 cells expressing EML4-ALK xenografted in SCID mouse assessed as tumor regression at 0.2 to 20 mg/kg, po qd for 11 days; format: functional, organism-based
Mus musculus [22] = assay: Toxicity in human KARPAS299 cells expressing NPM-ALK xenografted SCID mouse administered as change in body weight at 6 to 60 mg/kg, po qd for 11 days; format: organism-based, KARPAS-299; design: dose 6-60 mg/kg, route oral; conditions: in vivo, 264 h
Mus musculus [23] = assay: Toxicity in human NCI-H2228 cells expressing EML4-ALK xenografted SCID mouse administered as change in body weight at 0.2 to 20 mg/kg, po qd for 11 days; format: organism-based; design: dose 0.2-20 mg/kg, route oral; conditions: in vivo, 264 h

Sequence of ALK tyrosine kinase receptor (Q9UM73 whole entry): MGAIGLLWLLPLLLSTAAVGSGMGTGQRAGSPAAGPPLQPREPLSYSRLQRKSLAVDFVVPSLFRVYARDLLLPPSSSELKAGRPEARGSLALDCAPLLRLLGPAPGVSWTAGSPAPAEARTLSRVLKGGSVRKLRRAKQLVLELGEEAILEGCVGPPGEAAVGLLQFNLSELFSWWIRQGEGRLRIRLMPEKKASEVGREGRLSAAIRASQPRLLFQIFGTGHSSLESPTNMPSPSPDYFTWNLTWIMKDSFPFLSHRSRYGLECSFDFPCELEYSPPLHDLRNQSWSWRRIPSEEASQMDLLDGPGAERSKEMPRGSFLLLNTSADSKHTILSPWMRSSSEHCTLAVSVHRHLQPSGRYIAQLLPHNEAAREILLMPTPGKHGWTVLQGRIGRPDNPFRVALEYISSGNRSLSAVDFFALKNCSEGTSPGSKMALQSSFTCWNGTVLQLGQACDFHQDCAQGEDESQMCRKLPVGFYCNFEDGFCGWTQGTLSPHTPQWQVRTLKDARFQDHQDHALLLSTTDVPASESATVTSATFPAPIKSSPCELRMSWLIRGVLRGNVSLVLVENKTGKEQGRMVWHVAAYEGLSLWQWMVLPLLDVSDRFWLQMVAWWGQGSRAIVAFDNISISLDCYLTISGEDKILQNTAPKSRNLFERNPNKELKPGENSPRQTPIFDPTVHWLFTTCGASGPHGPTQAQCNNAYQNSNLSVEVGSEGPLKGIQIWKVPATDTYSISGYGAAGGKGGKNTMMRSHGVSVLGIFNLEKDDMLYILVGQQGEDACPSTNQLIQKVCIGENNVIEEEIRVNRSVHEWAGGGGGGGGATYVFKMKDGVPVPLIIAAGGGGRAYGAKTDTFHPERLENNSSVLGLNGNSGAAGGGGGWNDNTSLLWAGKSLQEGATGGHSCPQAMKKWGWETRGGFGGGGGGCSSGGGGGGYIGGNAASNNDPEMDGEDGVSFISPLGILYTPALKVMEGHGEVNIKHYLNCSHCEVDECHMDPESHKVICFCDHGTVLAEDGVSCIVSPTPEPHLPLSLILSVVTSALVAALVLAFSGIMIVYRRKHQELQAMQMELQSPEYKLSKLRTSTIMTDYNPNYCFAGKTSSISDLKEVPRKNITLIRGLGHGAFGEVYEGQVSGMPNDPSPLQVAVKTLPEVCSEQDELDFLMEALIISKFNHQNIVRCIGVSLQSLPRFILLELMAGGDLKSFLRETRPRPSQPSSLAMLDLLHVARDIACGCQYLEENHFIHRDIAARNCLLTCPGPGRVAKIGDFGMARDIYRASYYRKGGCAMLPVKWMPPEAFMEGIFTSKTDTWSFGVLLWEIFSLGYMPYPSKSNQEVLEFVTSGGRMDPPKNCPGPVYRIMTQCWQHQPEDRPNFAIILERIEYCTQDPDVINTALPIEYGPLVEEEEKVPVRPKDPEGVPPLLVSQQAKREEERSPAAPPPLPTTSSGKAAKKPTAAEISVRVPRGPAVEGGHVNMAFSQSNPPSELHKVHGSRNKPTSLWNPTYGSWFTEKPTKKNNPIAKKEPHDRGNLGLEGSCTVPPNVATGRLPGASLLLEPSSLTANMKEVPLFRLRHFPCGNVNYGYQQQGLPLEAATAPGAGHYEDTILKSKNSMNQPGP
T2 sequence (P05771 whole entry): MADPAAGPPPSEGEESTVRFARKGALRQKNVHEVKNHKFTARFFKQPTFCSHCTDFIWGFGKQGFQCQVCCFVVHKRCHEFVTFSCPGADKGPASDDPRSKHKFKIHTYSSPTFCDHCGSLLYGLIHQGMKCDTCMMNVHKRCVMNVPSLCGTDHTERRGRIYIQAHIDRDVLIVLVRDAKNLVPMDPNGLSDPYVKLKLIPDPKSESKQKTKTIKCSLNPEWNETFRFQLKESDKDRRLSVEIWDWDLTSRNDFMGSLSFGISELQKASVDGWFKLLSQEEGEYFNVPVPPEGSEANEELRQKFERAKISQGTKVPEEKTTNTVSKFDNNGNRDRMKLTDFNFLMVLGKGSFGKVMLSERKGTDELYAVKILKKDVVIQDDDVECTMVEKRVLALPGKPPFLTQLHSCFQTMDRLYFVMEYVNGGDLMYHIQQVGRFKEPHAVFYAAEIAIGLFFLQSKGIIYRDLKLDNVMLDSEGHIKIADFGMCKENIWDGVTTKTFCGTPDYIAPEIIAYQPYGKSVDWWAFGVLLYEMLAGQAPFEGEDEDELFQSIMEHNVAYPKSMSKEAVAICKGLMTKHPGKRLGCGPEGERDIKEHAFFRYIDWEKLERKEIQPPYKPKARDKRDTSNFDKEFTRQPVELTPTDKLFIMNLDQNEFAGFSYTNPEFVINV
Sequence of Mast/stem cell growth factor receptor Kit (P10721 whole entry): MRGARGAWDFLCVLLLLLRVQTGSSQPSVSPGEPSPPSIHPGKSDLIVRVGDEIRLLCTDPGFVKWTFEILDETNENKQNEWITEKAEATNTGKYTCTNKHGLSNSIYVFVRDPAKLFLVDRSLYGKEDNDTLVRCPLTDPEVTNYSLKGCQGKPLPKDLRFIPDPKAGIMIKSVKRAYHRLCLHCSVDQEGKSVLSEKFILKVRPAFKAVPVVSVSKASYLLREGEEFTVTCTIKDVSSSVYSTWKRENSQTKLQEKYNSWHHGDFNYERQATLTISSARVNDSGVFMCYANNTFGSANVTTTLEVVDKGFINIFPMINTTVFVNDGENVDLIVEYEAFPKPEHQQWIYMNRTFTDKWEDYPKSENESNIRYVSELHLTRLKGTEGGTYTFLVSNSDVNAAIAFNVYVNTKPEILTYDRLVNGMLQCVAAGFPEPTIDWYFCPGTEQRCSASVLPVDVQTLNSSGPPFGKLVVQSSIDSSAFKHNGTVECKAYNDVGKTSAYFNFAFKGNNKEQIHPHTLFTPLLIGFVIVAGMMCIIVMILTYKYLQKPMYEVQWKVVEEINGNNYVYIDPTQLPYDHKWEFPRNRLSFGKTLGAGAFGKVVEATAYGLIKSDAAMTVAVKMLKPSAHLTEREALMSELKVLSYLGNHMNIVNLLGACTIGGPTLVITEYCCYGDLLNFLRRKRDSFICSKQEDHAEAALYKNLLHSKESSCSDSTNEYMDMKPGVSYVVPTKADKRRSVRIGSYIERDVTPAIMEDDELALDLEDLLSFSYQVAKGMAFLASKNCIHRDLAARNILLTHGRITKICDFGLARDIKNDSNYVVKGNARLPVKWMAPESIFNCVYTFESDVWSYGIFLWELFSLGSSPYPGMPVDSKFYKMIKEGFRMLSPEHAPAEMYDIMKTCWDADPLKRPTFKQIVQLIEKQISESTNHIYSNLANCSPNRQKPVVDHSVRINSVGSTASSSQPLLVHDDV
Sequence of Fibroblast growth factor receptor 2 (P21802 whole entry): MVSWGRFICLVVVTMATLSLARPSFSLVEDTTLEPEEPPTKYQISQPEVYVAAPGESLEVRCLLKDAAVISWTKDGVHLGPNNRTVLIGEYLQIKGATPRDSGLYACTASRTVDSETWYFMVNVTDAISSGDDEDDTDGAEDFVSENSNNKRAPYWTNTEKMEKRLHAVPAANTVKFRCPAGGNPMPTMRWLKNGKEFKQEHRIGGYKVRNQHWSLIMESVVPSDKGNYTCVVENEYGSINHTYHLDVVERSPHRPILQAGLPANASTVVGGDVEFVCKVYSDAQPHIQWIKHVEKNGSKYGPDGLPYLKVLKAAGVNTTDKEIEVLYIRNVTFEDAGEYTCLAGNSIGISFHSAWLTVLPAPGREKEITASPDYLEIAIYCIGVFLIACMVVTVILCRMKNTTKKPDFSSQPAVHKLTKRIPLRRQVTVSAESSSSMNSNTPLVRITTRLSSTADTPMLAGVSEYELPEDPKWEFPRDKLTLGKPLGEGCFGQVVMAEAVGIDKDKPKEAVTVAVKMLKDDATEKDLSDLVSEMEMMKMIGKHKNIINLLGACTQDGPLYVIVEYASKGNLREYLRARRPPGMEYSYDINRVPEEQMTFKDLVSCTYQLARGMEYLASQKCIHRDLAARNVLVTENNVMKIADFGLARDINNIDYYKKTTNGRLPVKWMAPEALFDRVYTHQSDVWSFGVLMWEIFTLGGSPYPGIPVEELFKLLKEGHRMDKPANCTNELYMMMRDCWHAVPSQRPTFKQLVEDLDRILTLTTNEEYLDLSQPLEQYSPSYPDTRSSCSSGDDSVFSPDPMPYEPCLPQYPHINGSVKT

Row | Structure (SMILES) | IC50 [1] | microsomal CLint at 1 µM [2] | microsomal CLint at 1 µM [3] | IC50 (KARPAS-299 [4]) | also measured
1 | CC1(C)c2cc(N3CCN(S(C)(=O)=O)CC3)ccc2C(=O)c2c1[nH]c1cc(C#N)ccc21 | 0.0374 µM | 15.8 µL/min/mg | 19.2 µL/min/mg | 0.263 µM | 
2 | CCN(CC)CCOc1ccc2c(c1)C(C)(C)c1[nH]c3cc(C#N)ccc3c1C2=O |  | 51.4 µL/min/mg | 54.5 µL/min/mg | 0.06 µM | 
3 | CCCOc1ccc2c3c(oc2c1)C(C)(C)c1cc(OCCN(CC)CC)ccc1C3=O | 2.47 µM |  |  |  | 
4 | CCN(CC)CCOc1ccc2c(c1)C(C)(C)c1[nH]c3cc([N+](=O)[O-])ccc3c1C2=O |  |  |  | 0.57 µM | 
5 | CCN(CC)CCOc1ccc2c(c1)C(C)(C)c1oc3cc(Br)ccc3c1C2=O | 0.77 µM |  |  |  | 
6 | CC(=O)NCCOc1ccc2c(c1)C(C)(C)c1[nH]c3cc(C#N)ccc3c1C2=O | 0.0116 µM | 14.1 µL/min/mg | 4.2 µL/min/mg | 0.397 µM | 
7 | CC1(C)c2cc(OCCNC(N)=O)ccc2C(=O)c2c1[nH]c1cc(C#N)ccc21 |  | 6.8 µL/min/mg | 4 µL/min/mg | 2.31 µM | 
8 | CC1(C)c2cc(N3CCC(O)CC3)ccc2C(=O)c2c1[nH]c1cc(C#N)ccc21 | 0.0114 µM | 24.6 µL/min/mg | 7.1 µL/min/mg | 0.115 µM | 
9 | CC1(C)c2cc(C3CCN(C4COC4)CC3)ccc2C(=O)c2c1[nH]c1cc(C#N)ccc21 |  | 10.4 µL/min/mg | 10.2 µL/min/mg |  | IC50 [5]: 0.1 µM; IC50 [6]: 0.25 µM; IC50 [7]: 0.36 µM; IC50 [8]: 0.37 µM; IC50 [9]: 1 µM; IC50 [10]: > 50 µM; IC50 [11]: > 50 µM; IC50 [12]: > 50 µM; IC50 [13]: > 50 µM; IC50 (Aurora kinase A): > 50 µM; IC50 [14]: > 50 µM; IC50 [15]: > 50 µM; IC50 [16]: > 50 µM; IC50 [17]: > 50 µM; Activity (KARPAS-299 [18]): Dose-dependent effect; Activity (NCI-H2228 [19]): Dose-dependent effect; Activity (KARPAS-299 [20]): Active; Activity (NCI-H2228 [21]): Active; Activity (Mus musculus [22]): Non-toxic; Activity (Mus musculus [23]): Non-toxic
10 | CCN(CC)CCOc1ccc2c(c1)C(C)(C)c1[nH]c3cc(Cl)ccc3c1C2=O |  |  |  | 0.49 µM | 
11 | CC1(C)c2cc(N3CCN(C4COC4)CC3)ccc2C(=O)c2c1[nH]c1cc(C#N)ccc21 | 0.027 µM | 15.1 µL/min/mg | 9.6 µL/min/mg | 0.0479 µM | 

Now from value to molecule, other results behind:

Row | IC50 [1] | microsomal CLint at 1 µM [2] | microsomal CLint at 1 µM [3] | IC50 (KARPAS-299 [4]) | Structure (SMILES) | also measured
12 | 0.0037 µM | 24.9 µL/min/mg | 67 µL/min/mg | 0.0875 µM | CC1(C)c2cc(OCCN3CCS(=O)(=O)CC3)ccc2C(=O)c2c1[nH]c1cc(C#N)ccc21 | 
13 | 0.0334 µM | 58.9 µL/min/mg | 39.5 µL/min/mg | 0.331 µM | CC1(C)c2cc(N3CCCCC3)ccc2C(=O)c2c1[nH]c1cc(C#N)ccc21 | 
14 | 0.66 µM |  |  |  | CCN(CC)CCOc1ccc2c(c1)C(C)(C)c1oc3cc(Cl)ccc3c1C2=O | 
15 | 0.0185 µM | 8.1 µL/min/mg | 33.6 µL/min/mg | 0.134 µM | CC1(C)c2cc(N3CCOCC3)ccc2C(=O)c2c1[nH]c1cc(C#N)ccc21 | 
16 |  |  |  | 0.68 µM | CCN(CC)CCOc1ccc2c(c1)C(C)(C)c1[nH]c3cc(Br)ccc3c1C2=O | 
17 | 3.47 µM |  |  |  | CCN(CC)CCOc1ccc2c(c1)C(C)(C)c1oc3cc(C(F)(F)F)ccc3c1C2=O | 
18 |  | 23.1 µL/min/mg | 82.7 µL/min/mg |  | CC(C)N1CCN(c2ccc3c(c2)C(C)(C)c2[nH]c4cc(C#N)ccc4c2C3=O)CC1 | 
